The text below walks through data of patent US7713960B2, “Inhibition of the Raf/Mek/P-Erk pathway for treating cancer” (University of South Florida, priority 2005, dated 2010).

One series relates to P-STAT3. The experiment in a line: P-STAT3 levels (Western blotting), MDA-MB-231. Type of series: cell-based, human. How it is done: (§1) Western Blotting—Treated cell samples were lysed in 30 mM HEPES, 10 mM NaCl, 5 mM MgCl2, 25 mM NaF, 1 mM EGTA, 1% Triton-X-100, 10% Glycerol, 2 mM Sodium orthovanidate, 10 μg/mL aprotinin, 10 μg/mL soybean trypsin inhibitor, 25 μg/mL leupeptin, 2 mM phenylmethylsulfonylfluoride (PMSF), 6.4 mg/mL p-nitrophenylphosphate for 30 minutes at 4° C., and proteins run on SDS-PAGE gels then transferred to nitrocellulose membranes. Membranes were blocked in either 5% milk in PBS, pH 7.4, containing 0.1% Tween-20 (PBS-T) or 1% BSA in TBS, pH 7.5, containing 0.1% Tween-20 (TBS-T). Phospho-STAT3 and phospho-AKT antibodies were diluted in 1% BSA in TBS-T while phospho-c-Raf, phospho-Mek, and phospho-p44/p42 MAPK antibodies (Cell Signaling) were diluted in 5% milk in PBS-T for either 1 hour at room temperature or overnight at 4° C. HRP-conjugated secondary antibodies (Jackson ImmunoResearch, West Grove, Pa.) were diluted in 5% milk in PBS-T or TBS-T at a 1:1000 dilution for one hour at room temperature. Western blots results were visualized using enhanced chemiluminescence. Stripping of the membranes for reblotting was done using stripping buffer (62.5 mM Tris pH 7.6, 2% SDS, 0.7% 2-mercaptoethanol) at 50° C. for 30 minutes.
(Immunoblotting shows a protein as a band on a membrane.)

For series [1], the system named is MDA-MB-231 cells. Description: Apoptosis assay (Cell Death Detection ELISA), MDA-MB-231. In kind it is cell-based, human. The conditions noted are these: 48 hours. How it is done:
Apoptosis Assay—Apoptosis was analyzed using the Cell Death Detection ELISA (Roche, Indianapolis, Ind.) measuring cytoplasmic histone-associated mono- and oligonucleosome DNA fragments. Procedures were carried out according to the manufacturers protocol. Briefly, 1×10^5 cells were plated in 60 mm dishes and treated with various doses of ARA-211 or vehicle for 48 hours. Cells were lysed with the provided lysis buffer and lysate was incubated on the ELISA plate for 1 hour to capture the histone associated DNA indicative of apoptotic cells. Anti-DNA peroxidase conjugated antibody was added to detect the cleaved DNA and the microplate was washed and developed with ABTS substrate which was quantitated by microplate reader at 405 nm.
On the technique in general: In an ELISA, binding on a coated surface is turned into a signal by an enzyme label.

A further series concerns P-c-Raf-1. Description: P-c-Raf-1 levels (Western blotting), MDA-MB-231. Type of series: cell-based, human. Here is the method: as §1
The test system of the next series is P-p38. Description: P-p38 levels (Western blotting), MDA-MB-231. Type of series: cell-based, human.
Another series concerns P-Akt. Description: P-Akt levels (Western blotting), MDA-MB-231. Type of series: cell-based, human. Here is the method:
as §1

Series [2] concerns ACHN cells. Description: Total cellular cAMP measurement, ACHN. Type of series: cell-based, human. Here is the method: (§2) Total cellular cAMP measurement—The measurement of total cellular cAMP was done using a cAMP Biotrak ™ Enzymeimmunoassay (EIA) system (Amersham Biosciences, Piscataway, N.J.) according to the manufacturer's protocol. Briefly, 2000 cells were plated into each well of a 96 well plate. The next day cells were treated with increasing concentrations of ARA-211 or with vehicle for one hour. Alternatively, MDA-MB-231 cells were pre-treated with antagonists to the α1 (Prazosin, Sigma), α2 (Yohimbine, Sigma), β1 (Metoprolol, Sigma), and β2 (ICI 118.551, Sigma) adrenergic receptors at 100 nM for 15 minutes followed by treatment with 10 μM ARA-211 for 45 minutes. Cells were then lysed directly in the wells using the supplied lysis buffer. The lysate was transferred to a 96-well cAMP ELISA plate, and results were quantified using a Wallac Victor 2 plate reader.

The subject of series [3] is SF-539 cells. Description: Anchorage-independent growth (soft agar assay), SF-539. In kind it is cell-based, human. How it is done:
(§3) Soft Agar Assay—Anchorage independent growth assays were performed as previously described (Lerner et al., 1997). Briefly, agar was diluted to 0.3% in propagation media containing 20,000 cells and either vehicle or ARA-211 and 1 ml of cell/agar mixture plated on top of 2 ml of a 0.6% layer of agar in medium alone. Cells were grown for three to four weeks at 37° C., 10% Co2 and were fed weekly with 100 μl per well of media/treatment. Quantification of colonies was done using a GS-700 scanning densitometer.

In series [4] the test system is SF-539 cells. The experiment in a line: Total cellular cAMP measurement, SF-539. In kind it is cell-based, human. Here is the method:
as §2

For series [5], the system named is MDA-MB-231 cells. Description: Immunohistochemistry of MDA-MB-231 xenograft tumors (P-Erk 1/2, Tunel, Ki-67). In kind it is in vivo, nude mice. Conditions: 75 mpk/day, tumors removed on day 12. From the text:
Anti-tumor activity in nude mouse xenograft model—Female athymic nude (nu/nu) mice, 5-6 weeks old, were purchased from Charles River (Wilmington, Mass.) and allowed to acclimate in the animal facility for one week. After harvesting, A-549, SNB-19, ACHN, and HCT-116 cells were, resuspended in sterile PBS, and injected s.c. into the right and left flanks (10×10^6 cells per flank) of the mice as previously described (Sun et al., 2005). For MDA-MB-231, cells were harvested and resuspended in PBS (10×10^6 cells per 50 μl) and an equal volume of Matrigel (BD Biosciences, San Jose, Calif.). 100 μl of MDA-MB-231 cells in PBS/Matrigel were injected s.c. into the mammary fat pads between the 2nd and 3rd nipples on each side of the mice. Once the tumors reached approximately 200-300 mm^3 the mice were randomized and treated i.p. with 0.1 ml vehicle (PBS) or ARA-211. Each treatment group consisted of five mice (2 tumors per mouse, a total of 10 tumors). The tumor volumes were determined by measuring the length (l) and width (w) and calculating the volume (V=w^2l/2). Statistical significance between the control and treated animals was determined using a student's t test. Immunohistochemisty (IHC) and slide quantitation—Upon completion of the xenograft study, mice were euthanized and the tumors were removed and fixed in 10% buffered formalin for at least 24 hours. […] The IHC slides were analyzed at the Analytical Microscopy Core facility of the H. Lee Moffitt Cancer Center & Research Institute. The Ariol SL-50 automated image analysis system (Applied Imaging, Santa Clara, Calif.) was used for quantitation of each slide as previously described (Jiang et al., 2004). Briefly, high-resolution digital pictures were taken of the entire stained area of each slice of tumor tissue for automatic staining quantitation. […] Each slide analyzed consisted of 54,000 to 160,000 cells analyzed depending on the size of the tumor when resected. Significance of the quantitation was analyzed by a two-tailed student's t-test.

The test system of series [6] is ACHN cells. Description: Anchorage-independent growth (soft agar assay), ACHN. In kind it is cell-based, human. Here is the method:
as §3

Where a name gives a salt, the structure may show the parent alone.

With `CC(C)(C)NCC(O)c1ccc(O)c(CO)n1` (stereo not drawn) [ARA-211, 2-hydroxymethyl-3-hydroxy-6-(1-hydroxy-2-tert-butylaminoethyl) pyridine, dihydrochloride], the P-STAT3 levels result with P-STAT3 is “not”. Moreover, the “Apoptosis (% Induction)” value in the series on MDA-MB-231 cells [1] amounted to 15 ± 4%. The P-c-Raf-1 levels entry with P-c-Raf-1 is on record as “not”. In addition, in the series with P-p38, the P-p38 levels entry was “not”. In the series on P-Akt, the P-Akt levels entry was “not”. Moreover, the “cAMP (Fold Induction)” value with ACHN cells [2] came to 16.5 ± 3.2 Fold. Moreover, in the series with SF-539 cells [3], the “Anchorage Independent Growth (% Inhibition)” value stood at 94.4 ± 1.5%. The “cAMP (Fold Induction)” value with SF-539 cells [4] is given as 13.1 ± 3.0 Fold. Moreover, in the series with MDA-MB-231 cells [5], the “P-Erk 1/2 levels in tumors (IHC)” value was “suppresses P-Erk 1/2 levels”, the “apoptosis in tumors (Tunel)” value is listed as “induces apoptosis” and the “tumor cell proliferation in tumors (Ki-67)” value is reported as “inhibits tumor cell growth”. In addition, the “Anchorage Independent Growth (% Inhibition)” value in the series with ACHN cells [6] worked out at 97.9 ± 1.2%.
